Here are results for six molecules from ChEMBL document CHEMBL1139269, “Stereoselective inhibition of serotonin re-uptake and phosphodiesterase by dual inhibitors as potential agents for depression” (Bioorg Med Chem, 2009).

In assay [1] the target is T1, Sodium-dependent serotonin transporter (Homo sapiens, UniProt P31645). Nature of the assay: Inhibition of [3H]5HT from human recombinant SERT expressed in HEK293 cells. The assay is classed as cell-based.
The target in assay [2] is T2, 3',5'-cyclic-AMP phosphodiesterase 4D (Homo sapiens, UniProt Q08499). The experiment in a line: Inhibition of PDE4D2 by rapid fluorescence based assay.
T2 sequence (Q08499 whole entry): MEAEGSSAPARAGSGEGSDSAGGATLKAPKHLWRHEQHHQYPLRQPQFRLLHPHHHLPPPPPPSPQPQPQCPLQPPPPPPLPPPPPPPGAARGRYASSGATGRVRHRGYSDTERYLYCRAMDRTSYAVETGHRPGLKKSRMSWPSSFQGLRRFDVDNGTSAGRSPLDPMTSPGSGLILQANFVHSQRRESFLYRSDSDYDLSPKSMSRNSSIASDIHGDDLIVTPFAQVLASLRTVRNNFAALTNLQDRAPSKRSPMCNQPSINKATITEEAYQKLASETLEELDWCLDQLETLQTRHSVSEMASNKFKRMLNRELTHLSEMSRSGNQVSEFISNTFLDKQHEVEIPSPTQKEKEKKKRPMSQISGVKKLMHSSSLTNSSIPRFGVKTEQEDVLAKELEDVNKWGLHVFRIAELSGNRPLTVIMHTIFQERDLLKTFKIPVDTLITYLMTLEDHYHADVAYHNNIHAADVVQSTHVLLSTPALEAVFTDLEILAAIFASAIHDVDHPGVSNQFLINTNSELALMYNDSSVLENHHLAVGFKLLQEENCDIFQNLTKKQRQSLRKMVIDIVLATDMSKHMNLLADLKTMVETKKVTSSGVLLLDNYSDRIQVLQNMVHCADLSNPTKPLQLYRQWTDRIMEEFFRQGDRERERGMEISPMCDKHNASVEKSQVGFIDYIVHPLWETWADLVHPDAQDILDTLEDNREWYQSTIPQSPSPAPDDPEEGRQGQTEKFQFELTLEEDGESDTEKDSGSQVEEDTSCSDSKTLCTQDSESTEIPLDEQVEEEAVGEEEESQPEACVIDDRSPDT
Assay [3] deals with T3, Sodium-dependent noradrenaline transporter (Homo sapiens, UniProt P23975). The experiment in a line: Inhibition of [3H]NE from human recombinant NET expressed in HEK293 cells. The assay is classed as cell-based.
T3 sequence (P23975 whole entry): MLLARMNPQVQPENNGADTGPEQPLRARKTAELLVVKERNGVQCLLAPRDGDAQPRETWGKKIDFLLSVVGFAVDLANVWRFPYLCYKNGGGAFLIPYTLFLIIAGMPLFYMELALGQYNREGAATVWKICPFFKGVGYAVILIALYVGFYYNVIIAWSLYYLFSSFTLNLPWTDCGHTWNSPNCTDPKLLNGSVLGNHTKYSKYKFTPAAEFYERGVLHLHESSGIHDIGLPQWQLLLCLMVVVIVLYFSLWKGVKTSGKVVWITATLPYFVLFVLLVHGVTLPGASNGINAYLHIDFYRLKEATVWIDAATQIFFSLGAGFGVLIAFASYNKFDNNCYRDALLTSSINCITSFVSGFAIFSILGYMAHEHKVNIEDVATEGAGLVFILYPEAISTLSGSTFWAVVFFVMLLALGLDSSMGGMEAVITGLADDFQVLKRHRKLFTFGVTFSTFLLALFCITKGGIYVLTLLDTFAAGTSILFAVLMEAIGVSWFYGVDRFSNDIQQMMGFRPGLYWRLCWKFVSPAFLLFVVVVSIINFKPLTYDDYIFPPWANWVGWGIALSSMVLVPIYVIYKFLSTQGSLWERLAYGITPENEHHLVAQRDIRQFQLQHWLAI
Assay [4] has as its target T1, Sodium-dependent serotonin transporter. Nature of the assay: biochemical. Format: cell-based, HEK293.
For assay [5], the target named is T3, Sodium-dependent noradrenaline transporter. The experiment in a line: Displacement of [125I]RTI55 from human recombinant NET expressed in HEK293 cells. The assay is classed as cell-based. For orientation: Loss of bound radioactivity is the signal in a displacement assay; it reports binding, not function.
Assay [6] has as its target T4, Sodium-dependent dopamine transporter (Homo sapiens, UniProt Q01959). The experiment in a line: Displacement of [125I]RTI55 from human recombinant DAT expressed in HEK293 cells. Format: cell-based.
Assay [7] has as its target T4, Sodium-dependent dopamine transporter. The experiment in a line: Inhibition of [3H]DA from human recombinant DAT expressed in HEK293 cells. The assay is classed as cell-based.
Assay [8] deals with T2, 3',5'-cyclic-AMP phosphodiesterase 4D. Nature of the assay: Inhibition of PDE4D2 at 100 uM by rapid fluorescence based assay.

Active and inactive are the calls of the source. The rule behind the calls is not given here.

T4 sequence (Q01959 whole entry): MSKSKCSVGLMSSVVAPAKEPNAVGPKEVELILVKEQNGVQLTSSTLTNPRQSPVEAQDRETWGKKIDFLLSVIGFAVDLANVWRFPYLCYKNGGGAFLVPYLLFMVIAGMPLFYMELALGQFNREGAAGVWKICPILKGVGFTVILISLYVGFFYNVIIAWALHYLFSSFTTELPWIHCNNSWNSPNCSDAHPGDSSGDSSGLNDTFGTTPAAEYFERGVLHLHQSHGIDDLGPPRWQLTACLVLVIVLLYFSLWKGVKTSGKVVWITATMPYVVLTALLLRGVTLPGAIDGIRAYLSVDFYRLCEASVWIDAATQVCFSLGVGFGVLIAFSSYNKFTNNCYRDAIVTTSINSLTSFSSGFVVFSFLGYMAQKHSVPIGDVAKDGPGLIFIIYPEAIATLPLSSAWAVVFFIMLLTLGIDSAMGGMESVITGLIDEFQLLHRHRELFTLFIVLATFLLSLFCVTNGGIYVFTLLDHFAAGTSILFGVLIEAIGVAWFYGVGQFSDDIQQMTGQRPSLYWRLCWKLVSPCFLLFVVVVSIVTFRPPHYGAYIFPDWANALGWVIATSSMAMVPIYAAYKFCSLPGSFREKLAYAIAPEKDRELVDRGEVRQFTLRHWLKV
T1 sequence (P31645 whole entry): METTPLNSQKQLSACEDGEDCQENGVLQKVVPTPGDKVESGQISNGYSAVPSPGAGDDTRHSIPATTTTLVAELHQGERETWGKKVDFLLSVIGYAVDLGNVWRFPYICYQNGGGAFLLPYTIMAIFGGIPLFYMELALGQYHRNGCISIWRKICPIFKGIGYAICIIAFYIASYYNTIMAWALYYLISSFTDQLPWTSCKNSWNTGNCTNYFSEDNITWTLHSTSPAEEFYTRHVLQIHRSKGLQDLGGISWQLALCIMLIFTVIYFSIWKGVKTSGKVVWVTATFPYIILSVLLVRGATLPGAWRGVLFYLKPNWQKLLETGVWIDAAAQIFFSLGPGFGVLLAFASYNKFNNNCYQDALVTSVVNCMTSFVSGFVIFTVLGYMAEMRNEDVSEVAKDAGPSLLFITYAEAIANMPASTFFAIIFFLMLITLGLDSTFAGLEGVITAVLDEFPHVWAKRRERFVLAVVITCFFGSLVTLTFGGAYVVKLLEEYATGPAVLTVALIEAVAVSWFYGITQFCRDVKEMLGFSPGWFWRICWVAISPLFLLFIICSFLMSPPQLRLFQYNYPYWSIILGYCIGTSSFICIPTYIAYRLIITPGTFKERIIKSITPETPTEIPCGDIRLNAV

With `COc1ccc(C2=NNC(=O)C3CC=CCC23)cc1OC` (stereo not given), the IC50 – broadly, the concentration at which inhibition is half-maximal – in assay [1] was greater than 100 µM; in assay [2], 0.213 µM; in assay [3], greater than 100 µM; in assay [7], greater than 100 µM. For the same molecule, the inhibition constant Ki in assay [4], in assay [5] and in assay [6] was greater than 100 µM in each case.

Take `COc1ccc(C2=NN(CCCCCNCC[C@@H](Oc3ccc(C(F)(F)F)cc3)c3ccccc3)C(=O)C3CC=CCC23)cc1OC` (stereo not given in full): the IC50 was 0.173 µM in assay [1], 0.106 µM in assay [2], 6.81 µM in assay [3] and greater than 7 µM in assay [7]. Further, the Ki (usually the equilibrium dissociation constant of an inhibitor or competing ligand from its target) worked out at 0.065 µM in assay [4], 6.57 µM in assay [5] and 4.49 µM in assay [6].

Turning to `NCC[C@H](Oc1ccc(C(F)(F)F)cc1)c1ccccc1` [SEPROXETINE], the IC50 is no less than 100 µM in assay [2], 2.81 µM in assay [3] and 6.49 µM in assay [7]. Also, the values for the inhibitory constant (Ki) in assay [5] and in assay [6] were 6.19 µM and 4.54 µM, respectively.

As to `COc1ccc(C2=NN(CCCCCBr)C(=O)C3CC=CCC23)cc1OC` (stereo not given), the IC50 in assay [1] and in assay [7] was greater than 100 µM each time. In addition, the Ki in assay [4] and in assay [6] was greater than 100 µM in each case.

As for `NCC[C@@H](Oc1ccc(C(F)(F)F)cc1)c1ccccc1`, in assay [8], the outcome was inactive. The IC50 was 2 µM in assay [3] and 7.13 µM in assay [7]. The inhibition constant (Ki) in assay [5] was determined as 7.49 µM; in assay [6], 3.66 µM.

Consider `COc1ccc(C2=NN(CCCCCNCC[C@H](Oc3ccc(C(F)(F)F)cc3)c3ccccc3)C(=O)C3CC=CCC23)cc1OC` (stereo not given in full), for which the half-maximal inhibitory concentration (IC50) was determined as 0.042 µM in assay [1], 0.253 µM in assay [2], 6.55 µM in assay [3] and 5.98 µM in assay [7]. The values for the inhibition constant Ki in assay [4], in assay [5] and in assay [6] were 0.3 µM, 4.6 µM and 2.72 µM, respectively.
